Data from ChEMBL document CHEMBL1201862, “PubChem BioAssay data set” (2004).
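Results reflect a 48-hour exposure of cells in 96-well plates to compound at five concentrations. The concentration for 50% growth inhibition is given as GI50.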 Activity calls are given as the source filed them. No stated cut-off is given here; in the data, active = GI50 up to about 1.1 µM and inactive = higher.

Columns and labels:
Experiment in all cases: growth of human tumour cells (NCI), 48 h
HOP-62 = test system: HOP-62
BT-549 = test system: BT-549
K562 = test system: K562
UACC-62 = test system: UACC-62
HT-29 = test system: HT-29
ACHN = test system: ACHN
MOLT-4 = test system: MOLT-4
HOP-92 = test system: HOP-92
KM12 = test system: KM12
SNB-75 = test system: SNB-75
T47D = test system: T47D
SK-MEL-5 = test system: SK-MEL-5
SF-295 = test system: SF-295
SK-MEL-28 = test system: SK-MEL-28
SN12C = test system: SN12C
OVCAR-5 = test system: OVCAR-5
SK-OV-3 = test system: SK-OV-3
DU-145 = test system: DU-145
PC-3 = test system: PC-3
A498 = test system: A498
HCT-116 = test system: HCT-116
OVCAR-3 = test system: OVCAR-3
A549 = test system: A549
LOX IMVI = test system: LOX IMVI
RXF 393 = test system: RXF 393
TK-10 = test system: TK-10
MDA-MB-435 = test system: MDA-MB-435
MCF7 = test system: MCF7
OVCAR-8 = test system: OVCAR-8
Hs-578T = test system: Hs-578T
SK-MEL-2 = test system: SK-MEL-2
EKVX = test system: EKVX
SR = test system: SR
NCI-H522 = test system: NCI-H522
CCRF-CEM = test system: CCRF-CEM
CAKI-1 = test system: CAKI-1
M14 = test system: M14
IGROV-1 = test system: IGROV-1
MDA-N = test system: MDA-N
Malme-3M = test system: Malme-3M
RPMI-8226 = test system: RPMI-8226
HL-60 = test system: HL-60
U-251 = test system: U-251
NCI-H226 = test system: NCI-H226
UACC-257 = test system: UACC-257
MDA-MB-231 = test system: MDA-MB-231
SW-620 = test system: SW-620
COLO 205 = test system: COLO 205
UO-31 = test system: UO-31
NCI/ADR-RES = test system: NCI/ADR-RES
786-0 = test system: 786-0
NCI-H23 = test system: NCI-H23
SF-268 = test system: SF-268
HCC 2998 = test system: HCC 2998
HCT-15 = test system: HCT-15
NCI-H460 = test system: NCI-H460
SF-539 = test system: SF-539
SNB-19 = test system: SNB-19

Measured: GI50

Cc1ccc2c(/C=C/c3ccc(N(C)C)cc3)ccc(C(C)C)cc1-2
inactive: HOP-62 > 100 µM | BT-549 > 100 µM | K562 > 100 µM | UACC-62 > 100 µM | HT-29 49.1 µM | ACHN > 100 µM | MOLT-4 > 100 µM | HOP-92 76.4 µM | KM12 > 100 µM | SNB-75 > 100 µM | T47D 36.9 µM | SK-MEL-5 22 µM | SF-295 > 100 µM | SK-MEL-28 > 100 µM | SN12C > 100 µM | OVCAR-5 > 100 µM | SK-OV-3 > 100 µM | DU-145 > 100 µM | PC-3 > 100 µM | A498 83.4 µM | HCT-116 > 100 µM | OVCAR-3 > 100 µM | A549 > 100 µM | LOX IMVI > 100 µM | RXF 393 > 100 µM | TK-10 > 100 µM | MDA-MB-435 > 100 µM | MCF7 > 100 µM | OVCAR-8 > 100 µM | Hs-578T > 100 µM | SK-MEL-2 > 100 µM | EKVX 94.2 µM | SR 27.9 µM | NCI-H522 99.3 µM | CCRF-CEM 37.2 µM | CAKI-1 > 100 µM | M14 > 100 µM | IGROV-1 > 100 µM | MDA-N > 100 µM | Malme-3M > 100 µM | RPMI-8226 > 100 µM | HL-60 12.9 µM | U-251 > 100 µM | NCI-H226 > 100 µM | UACC-257 48.9 µM | MDA-MB-231 > 100 µM | SW-620 > 100 µM | COLO 205 > 100 µM | UO-31 > 100 µM | NCI/ADR-RES > 100 µM | 786-0 > 100 µM | NCI-H23 > 100 µM | SF-268 > 100 µM

Cc1cccc(C(O)c2ccccn2)c1O (stereo not given)
inactive: HOP-62 > 100 µM | BT-549 > 100 µM | K562 > 100 µM | UACC-62 74.6 µM | HT-29 > 100 µM | ACHN > 100 µM | MOLT-4 > 100 µM | KM12 > 100 µM | HCC 2998 > 100 µM | SNB-75 > 100 µM | T47D 15.7 µM | SK-MEL-5 > 100 µM | NCI-H460 > 100 µM | SF-295 > 100 µM | SK-MEL-28 > 100 µM | SN12C > 100 µM | OVCAR-5 > 100 µM | DU-145 > 100 µM | PC-3 > 100 µM | HCT-116 > 100 µM | OVCAR-3 > 100 µM | A549 > 100 µM | LOX IMVI > 100 µM | RXF 393 > 100 µM | TK-10 > 100 µM | MDA-MB-435 > 100 µM | MCF7 > 100 µM | OVCAR-8 > 100 µM | Hs-578T > 100 µM | EKVX > 100 µM | SR > 100 µM | NCI-H522 > 100 µM | CCRF-CEM > 100 µM | CAKI-1 > 100 µM | IGROV-1 > 100 µM | MDA-N > 100 µM | Malme-3M > 100 µM | RPMI-8226 > 100 µM | HL-60 > 100 µM | U-251 > 100 µM | NCI-H226 > 100 µM | UACC-257 > 100 µM | MDA-MB-231 > 100 µM | SW-620 > 100 µM | COLO 205 > 100 µM | UO-31 > 100 µM | SF-539 > 100 µM | SNB-19 > 100 µM | NCI/ADR-RES > 100 µM | NCI-H23 > 100 µM | SF-268 > 100 µM
83.2 µM: HCT-15
